# From patent publication US20240366540A1, “MITOFUSIN INHIBITORS AND USES THEREOF” (Albert Einstein College of Medicine, priority 2021, published 2024)
# What was measured:
# MEFs = assay: Cytochrome C release; type: cell-based, mouse; conditions: 6 hrs treatment, cytosolic and mitochondrial fractions
# Method: Cytochrome C release. MEFs were seeded in a 10 cm^2 dish and grown at ˜70% confluence. Following 6 hrs treatment with MFI8, cells were harvested and lysed in digitonin buffer [20 mM Hepes, pH 7.2, 10 mM KCl, 5 mM MgCl2, Im MEDTA, 1 mM EGTA, 250 mM sucrose, 0.025% Digitonin (from 5% w/v stock) and complete protease inhibitors (Roche Applied Science)] on ice for 10 min. Then, supernatants were isolated by centrifugation at 15,000×g for 10 min. Mitochondrial pellets solubilized in 1% Triton X-100/PBS for 1 hr at 4° C. Solubilized Pellets were subjected to a 14,000×rpm spin for 10 min. Samples were prepared for western blot analysis and separated by 4-12% NuPage (Life Technologies).
# SKML-30 cells = assay: Cell viability, melanoma cells; type: cell-based; conditions: SKML-30, 72 hr, Cell titer Glo
# Method: Cell titer Glo was used to measure viability. Cells were treated with MFI8 for 72 hr (n=3, mean±SD).
# Cell viability assay. Cells (5×10^3 cells/well) were seeded in a 96-well white plate and treated with serial dilutions of MASM7 or MFI8. Cell viability was assayed after 72 hrs by addition of CellTiter-Glo reagent according to the manufacturer's protocol (Promega). Luminescence was measured using a F200 PRO microplate reader (TECAN). Viability assays were performed in at least triplicate and the data normalized to vehicle-treated control wells. Dilutions of MASM7 or MFI8 were performed using a TECAN D300e Digital Dispenser from 10 mM stocks.
structure (smiles),measurement,setting,value
"Cc1cccc(NC(C)c2cc(Cl)ccc2O)c1C (centres unmarked) [MFI8, 4-Chloro-2-(1-((2,3-dimethylphenyl)amino)ethyl)phenol]",cytochrome c release to the cytosol,MEFs,"cytochrome c was released to the cytosol, albeit at modest levels"
same,viability,SKML-30 cells,concentration responsively reduces viability
